Data taken from patent publication US20240000871A1, “Lactobacillus gasseri capable of alleviating and treating hyperuricemia” (Jiangnan University, priority 2020, published 2024).

Test system: fecal short-chain fatty acids
Test: Fecal short-chain fatty acids of mice with hyperuricemia
Type: in vivo
Conditions: feces at the end of the experiment
Description: 24 healthy male KM mice with the weight of 38 to 44 g were randomly divided into four groups after a week of acclimatization, namely a control group, a hyperuricemia model group, an L. gasseri CCFM1133 intervention group (CCFM1133) and an allopurinol intervention group (allopurinol). Except the control group, 500 mg/kg BW hypoxanthine was given to the other groups every day by intragastric administration, and 100 mg/kg BW oteracil potassium was intraperitoneally injected to the other groups every day. At 1 h before processing with hypoxanthine and oteracil potassium, 0.4 mL of 30 g/L sucrose (a control solvent) was given to the control group and the hyperuricemia model group, L. gasseri CCFM1133 bacterial suspension (30 g/L sucrose solution containing L. gasseri CCFM1133 thallus) with the concentration of 1×10^9 CFU/mouse was given to the L. gasseri CCFM1133 intervention group, and 5 mg/kg BW allopurinol was given to the allopurinol group. […]
The short-chain fatty acids were separated by using an Rtx-Wax column. The short-chain fatty acids (acetic acid, propionic acid, isobutyric acid, butyric acid, isovaleric acid and valeric acid) were detected in a full scanning mode (the mass-to-charge ratio scanning range is 33 to 110). Characteristic ions of analyte standards were selected for quantitative analysis.

With `Oc1ncnc2[nH]ncc12` [allopurinol] the “Effect on fecal short-chain fatty acid levels (acetic, propionic, isobutyric, butyric, isovaleric and valeric acid)” value was “does not have much of the effect”.
